Results reported in patent US9540391B2, “Isomannide derivatives as inhibitors of soluble epoxide hydrolase” (SANOFI, priority 2013, dated 2017).
Counter-ions that a name gives are not always drawn.

Target: T1, recombinant sEH (Homo sapiens, UniProt P34913)
T1 construct: made in house; host or cells: Sf9 insect cells
T1 sequence (P34913 1-555): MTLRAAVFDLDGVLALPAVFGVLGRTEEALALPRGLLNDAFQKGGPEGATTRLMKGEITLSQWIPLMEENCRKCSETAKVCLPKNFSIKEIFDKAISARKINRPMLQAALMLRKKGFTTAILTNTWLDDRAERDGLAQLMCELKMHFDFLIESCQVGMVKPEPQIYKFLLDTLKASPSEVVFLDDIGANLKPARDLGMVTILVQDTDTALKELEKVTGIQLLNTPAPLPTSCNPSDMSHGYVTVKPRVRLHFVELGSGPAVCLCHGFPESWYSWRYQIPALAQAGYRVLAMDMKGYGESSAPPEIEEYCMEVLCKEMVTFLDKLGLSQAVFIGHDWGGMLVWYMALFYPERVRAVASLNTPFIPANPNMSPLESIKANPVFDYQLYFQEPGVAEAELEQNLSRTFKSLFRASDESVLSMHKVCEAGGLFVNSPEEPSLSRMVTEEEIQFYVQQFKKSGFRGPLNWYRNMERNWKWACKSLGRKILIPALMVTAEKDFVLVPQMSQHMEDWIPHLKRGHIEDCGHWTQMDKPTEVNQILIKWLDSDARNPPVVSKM
Test: biochemical screening assay for inhibition of soluble epoxide hydrolase (fluorometric, Phome substrate)
How it was run: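 Human sEH from Sf9 cells (2 nM final) was pre-incubated 15 min at 30 °C with compound (0.0001–10 μM), then reacted 60 min at 30 °C with 5 μM Phome in 25 mM Hepes/0.01% albumin. Fluorescence of released 6-methoxy-2-naphthaldehyde was read before substrate and at end; IC50 from % inhibition.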

Question: For `CCC(O)(CC)c1cncc(O[C@H]2CO[C@H]3[C@@H]2OC[C@@H]3NC(=O)NC2CCCCC2)c1` [Example 69, 1-cyclohexyl-3-{(3S,3aR,6S,6aS)-6-[5-(1-ethyl-1-hydroxy-propyl)-pyridin-3-yloxy]-hexahydro-furo[3,2-b]furan-3-yl}-urea], which IC50 is on record?
Answer: Its IC50 is 2 nM.

Question: `O=C(NC1CCCCC1)N[C@H]1CO[C@H]2[C@@H]1OC[C@@H]2Oc1ccc(N2CCCC2)nc1` [Example 70, 1-cyclohexyl-3-[(3S,3aR,6S,6aS)-6-(6-pyrrolidin-1-yl-pyridin-3-yloxy)-hexahydro-furo[3,2-b]furan-3-yl]-urea] was tested. Which IC50 did it give?
Answer: Its IC50 is 1 nM.

Question: How did the IC50 turn out when `O=C(NC1CCCCC1)N[C@H]1CO[C@H]2[C@@H]1OC[C@@H]2Oc1ccc(N2CCC(F)(F)CC2)nc1` [Example 71, 1-Cyclohexyl-3-[(3S,3aR,6S,6aS)-6-(4,4-difluoro-3,4,5,6-tetrahydro-2H-[1,2′]bipyridinyl-5′-yloxy)-hexahydro-furo[3,2-b]furan-3-yl]-urea] was run?
Answer: Its IC50 is 7 nM.

Question: How did the IC50 turn out when `CCN(CC)c1ccc(O[C@H]2CO[C@H]3[C@@H]2OC[C@@H]3NC(=O)NC2CCCCC2)cn1` [Example 72, 1-Cyclohexyl-3-[(3S,3aR,6S,6aS)-6-(6-diethylamino-pyridin-3-yloxy)-hexa-hydro-furo[3,2-b]furan-3-yl]-urea] was run?
Answer: Its IC50 is under 1 nM.

Question: With `O=C(NC1CCCCC1)N[C@H]1CO[C@H]2[C@@H]1OC[C@@H]2Oc1ccc(N2CCOCC2)nc1` [Example 73, 1-Cyclohexyl-3-[(3S,3aR,6S,6aS)-6-(6-morpholin-4-yl-pyridin-3-yloxy)-hexahydro-furo[3,2-b]furan-3-yl]-urea] as the molecule, how does the IC50 read?
Answer: The IC50 was 4 nM.

Question: `O=C(NC1CCCCC1)N[C@H]1CO[C@H]2[C@@H]1OC[C@@H]2S(=O)(=O)C1CCCCC1` [Example 74, 1-((3S,3aR,6S,6aS)-6-cyclohexanesulfonyl-hexahydro-furo[3,2-b]furan-3-yl)-3-cyclohexyl-urea] was tested. Which IC50 did it give?
Answer: Its IC50 is 5 nM.

Question: Which IC50 does the source give for `O=C(NC1CCCCC1)N[C@H]1CO[C@H]2[C@@H]1OC[C@@H]2Oc1cccc(N2CCCCC2)c1` [Example 75, 1-cyclohexyl-3-[(3S,3aR,6S,6aS)-6-(3-piperidin-1-yl-phenoxy)-hexahydro-furo[3,2-b]furan-3-yl]-urea] here?
Answer: The IC50 was 2 nM.

Question: `Cc1ncccc1O[C@H]1CO[C@H]2[C@@H]1OC[C@@H]2NC(=O)NC1CCCCC1` [Example 76, 1-cyclohexyl-3-[(3S,3aR,6S,6aS)-6-(2-methyl-pyridin-3-yloxy)-hexahydro-furo[3,2-b]furan-3-yl]-urea] was tested. Which IC50 did it give?
Answer: The IC50 was 2 nM.

Question: Which IC50 does the source give for `O=C(NC1CCC(F)(F)CC1)N[C@H]1CO[C@H]2[C@@H]1OC[C@@H]2Oc1ccc(F)cc1` [Example 77, 1-(4,4-difluoro-cyclohexyl)-3-[(3S,3aR,6S,6aS)-6-(4-fluoro-phenoxy)-hexahydro-furo[3,2-b]furan-3-yl]-urea] here?
Answer: The IC50 was 17 nM.

Question: Which IC50 does the source give for `COC1COCCC1NC(=O)N[C@H]1CO[C@H]2[C@@H]1OC[C@@H]2Oc1cccnc1C` (stereo partly drawn) [Example 78, 1-(3-methoxy-tetrahydro-pyran-4-yl)-3-[(3S,3aR,6S,6aS)-6-(2-methyl-pyridin-3-yloxy)-hexahydro-furo[3,2-b]furan-3-yl]-urea; hydrochloride] here?
Answer: Its IC50 is 1330 nM.

Question: How did the IC50 turn out when `CCOC1COCCC1NC(=O)N[C@H]1CO[C@H]2[C@@H]1OC[C@@H]2Oc1cccnc1C` (stereo partly drawn) [Example 79, 1-(3-ethoxy-tetrahydro-pyran-4-yl)-3-[(3S,3aR,6S,6aS)-6-(2-methyl-pyridin-3-yloxy)-hexahydro-furo[3,2-b]furan-3-yl]-urea; hydrochloride] was run?
Answer: Its IC50 is 987 nM.

Question: Which IC50 does the source give for `Cc1ncccc1O[C@H]1CO[C@H]2[C@@H]1OC[C@@H]2NC(=O)NC1COC(C)(C)OC1` [Example 80, 1-(2,2-dimethyl-[1,3]dioxan-5-yl)-3-[(3S,3aR,6S,6aS)-6-(2-methyl-pyridin-3-yloxy)-hexahydro-furo[3,2-b]furan-3-yl]-urea] here?
Answer: The IC50 was 1160 nM.

Question: How did the IC50 turn out when `Cc1ncccc1O[C@H]1CO[C@H]2[C@@H]1OC[C@@H]2NC(=O)NC1CCCN(C(=O)OC(C)(C)C)C1` (stereo partly drawn) [Example 81, 3-{3-[(3S,3aR,6S,6aS)-6-(2-methyl-pyridin-3-yloxy)-hexahydro-furo[3,2-b]furan-3-yl]-ureido}-piperidine-1-carboxylic acid tert-butyl ester] was run?
Answer: Its IC50 is 16 nM.

Question: With `Cc1ncccc1O[C@H]1CO[C@H]2[C@@H]1OC[C@@H]2NC(=O)NC1CCCNC1` (stereo partly drawn) [Example 82, 1-[(3S,3aR,6S,6aS)-6-(2-methyl-pyridin-3-yloxy)-hexahydro-furo[3,2-b]furan-3-yl]-3-piperidin-3-yl-urea; hydrochloride] as the molecule, how does the IC50 read?
Answer: The IC50 was 2620 nM.

Question: For `Cc1ncccc1O[C@H]1CO[C@H]2[C@@H]1OC[C@@H]2NC(=O)NC1CCCN(C(=O)c2ccc(F)cc2)C1` (stereo partly drawn) [Example 83, 1-[1-(4-fluoro-benzoyl)-piperidin-3-yl]-3-[(3S,3aR,6S,6aS)-6-(2-methyl-pyridin-3-yloxy)-hexahydro-furo[3,2-b]furan-3-yl]-urea], which IC50 is on record?
Answer: Its IC50 is 182 nM.

Question: For `Cc1ncccc1OC1COC2C(NC(=O)NC3CCCN(C(=O)C(C)C)C3)COC12` [Example 84, 1-(1-Isobutyryl-piperidin-3-yl)-3-[(3S,-3aR,6S,6aS)-6-(2-methyl-pyridin-3-yloxy)-hexahydro-furo[3,2-b]furan-3-yl]-urea], which IC50 is on record?
Answer: The IC50 was 59 nM.

Question: `Cc1ncccc1O[C@H]1CO[C@H]2[C@@H]1OC[C@@H]2NC(=O)NC1CCCN(C(=O)C2CC2)C1` (stereo partly drawn) [Example 85, 1-(1-Cyclopropanecarbonyl-piperidin-3-yl)-3-[(3S,3aR,6S,6aS)-6-(2-methyl-pyridin-3-yloxy)-hexahydro-furo[3,2-b]furan-3-yl]-urea] was tested. Which IC50 did it give?
Answer: Its IC50 is 20 nM.

Question: `Cc1ncccc1O[C@H]1CO[C@H]2[C@@H]1OC[C@@H]2NC(=O)NC1CCCN(S(C)(=O)=O)C1` (stereo partly drawn) [Example 86, 1-(1-Methanesulfonyl-piperidin-3-yl)-3-[(3S,3aR,6S,6aS)-6-(2-methyl-pyridin-3-yloxy)-hexahydro-furo[3,2-b]furan-3-yl]-urea] was tested. Which IC50 did it give?
Answer: The IC50 was 41 nM.

Question: With `Cc1ncccc1O[C@H]1CO[C@H]2[C@@H]1OC[C@@H]2NC(=O)NC1CCCN(C(=O)C(F)(F)F)C1` (stereo partly drawn) [Example 87, 1-[(3S,3aR,6S,6aS)-6-(2-Methyl-pyridin-3-yloxy)-hexahydro-furo[3,2-b]furan-3-yl]-3-[1-(2,2,2-trifluoro-acetyl)-piperidin-3-yl]-urea] as the molecule, how does the IC50 read?
Answer: The IC50 was 10 nM.

Question: Which IC50 does the source give for `Cc1ncccc1O[C@H]1CO[C@H]2[C@@H]1OC[C@@H]2NC(=O)NC1CCCN(C(=O)C(C)(C)C)C1` (stereo partly drawn) [Example 88, 1-[1-(2,2-Dimethyl-propionyl)-piperidin-3-yl]-3-[(3S,3aR,6S,6aS)-6-(2-methyl-pyridin-3-yloxy)-hexahydro-furo[3,2-b]furan-3-yl]-urea] here?
Answer: The IC50 was 53 nM.

Question: `Cc1ncccc1O[C@H]1CO[C@H]2[C@@H]1OC[C@@H]2NC(=O)NC1CCC(F)(F)CC1` [Example 89, 1-(4,4-difluoro-cyclohexyl)-3-[(3S,3aR,6S,6aS)-6-(2-methyl-pyridin-3-yloxy)-hexahydro-furo[3,2-b]furan-3-yl]-urea] was tested. Which IC50 did it give?
Answer: Its IC50 is 5 nM.

Question: Which IC50 does the source give for `Cc1ncccc1O[C@H]1CO[C@H]2[C@@H]1OC[C@@H]2NC(=O)NC1CCCC(C(F)(F)F)C1` (stereo partly drawn) [Example 90, 1-[(3S,3aR,6S,6aS)-6-(2-methyl-pyridin-3-yloxy)-hexahydro-furo[3,2-b]furan-3-yl]-3-(3-trifluoromethyl-cyclohexyl)-urea] here?
Answer: The IC50 was 1 nM.

Question: With `Cc1ncccc1O[C@H]1CO[C@H]2[C@@H]1OC[C@@H]2NC(=O)NC1CCOC(C)C1` (stereo partly drawn) [Example 91, 1-[(3S,3aR,6S,6aS)-6-(2-methyl-pyridin-3-yloxy)-hexahydro-furo[3,2-b]furan-3-yl]-3-(2-methyl-tetrahydro-pyran-4-yl)-urea] as the molecule, how does the IC50 read?
Answer: Its IC50 is 22 nM.

Question: How did the IC50 turn out when `CO[C@H]1COCC[C@H]1NC(=O)N[C@H]1CO[C@H]2[C@@H]1OC[C@@H]2Oc1cccnc1C` [Example 93, (R)-1-((R)-3-methoxy-tetrahydro-pyran-4-yl)-3-[(3S,3aR,6S,6aS)-6-(2-methyl-pyridin-3-yloxy)-hexahydro-furo[3,2-b]furan-3-yl]-urea] was run?
Answer: The IC50 was 32 nM.

Question: How did the IC50 turn out when `O=C(N[C@H]1CO[C@H]2[C@@H]1OC[C@@H]2Oc1ccc(F)cc1)N1CCC(F)(F)CC1` [Example 94, 4,4-difluoro-piperidine-1-carboxylic acid [(3S,3aR,6S,6aS)-6-(4-fluoro-phenoxy)-hexahydro-furo[3,2-b]furan-3-yl]-amide] was run?
Answer: Its IC50 is 2480 nM.

Question: With `O=C(NC1CCCCC1)N[C@H]1CO[C@H]2[C@@H]1OC[C@@H]2Oc1ccccc1F` [Example 95, 1-Cyclohexyl-3-[(3S,3aR,6S,6aS)-6-(2-fluoro-phenoxy)-hexahydro-furo[3,2-b]furan-3-yl]-urea] as the molecule, how does the IC50 read?
Answer: Its IC50 is 5 nM.

Question: How did the IC50 turn out when `O=C(NC1CCCCC1)N[C@H]1CO[C@H]2[C@@H]1OC[C@@H]2Oc1cccnc1` [Example 96, 1-Cyclohexyl-3-[(3S,3aR,6S,6aS)-6-(pyridin-3-yloxy)-hexahydro-furo[3,2-b]furan-3-yl]-urea; trifluoroacetate] was run?
Answer: The IC50 was 4 nM.

Question: Which IC50 does the source give for `O=C(NC1CCCCC1)N[C@H]1CO[C@H]2[C@@H]1OC[C@@H]2Oc1cccc(Cl)c1Cl` [Example 97, 1-Cyclohexyl-3-[(3S,3aR,6S,6aS)-6-(2,3-dichloro-phenoxy)-hexahydro-furo[3,2-b]furan-3-yl]-urea] here?
Answer: The IC50 was 3 nM.

Question: With `O=C(NC1CCCCC1)N[C@H]1CO[C@H]2[C@@H]1OC[C@@H]2Oc1ccccc1Cl` [Example 98, 1-[(3S,3aR,6S,6aS)-6-(2-Chloro-phenoxy)-hexahydro-furo[3,2-b]furan-3-yl]-3-cyclohexyl-urea] as the molecule, how does the IC50 read?
Answer: The IC50 was 2 nM.
